Assay results from the OligoGym collection.
After the bases stand the sugars from the 5' end (letter, count) and the backbone: PS all phosphorothioate, else s phosphorothioate and o phosphodiester by linkage. Methylation of C is not given here. e = 2'-O-(2-methoxyethyl) (MOE); k = constrained ethyl (cEt); d = 2'-deoxy (DNA); m = 2'-O-methyl

Target: HSD17B13
Details: ASO, HepaRG

## GCACCGTTTTGGGCTA (sugars k3 d10 k3, PS)
0.02 µM
  target mRNA inhibition: 36%
0.078 µM
  target mRNA inhibition: 38%
0.313 µM
  target mRNA inhibition: 61%
1 µM
  target mRNA inhibition: 74%
1.25 µM
  target mRNA inhibition: 80%
5 µM
  target mRNA inhibition: 88%

## GCACCGTTTTGGGCTA (sugars kkdddddddddkekek, PS)
1 µM
  target mRNA inhibition: 49%

## GCACTCAGCTGCAGTT (sugars k3 d10 k3, PS)
1 µM
  target mRNA inhibition: 29%

## GCAGAAATTCACCTTG (sugars k3 d10 k3, PS)
0.02 µM
  target mRNA inhibition: 5%
0.078 µM
  target mRNA inhibition: 19%
0.313 µM
  target mRNA inhibition: 26%
1 µM
  target mRNA inhibition: 74%
1.25 µM
  target mRNA inhibition: 70%
5 µM
  target mRNA inhibition: 88%

## GCAGTTATTAGAAGTC (sugars k3 d9 k3 e1, PS)
1 µM
  target mRNA inhibition: 67%

## GCAGTTATTAGAAGTC (sugars k3 d10 k3, PS)
0.02 µM
  target mRNA inhibition: 9%
0.078 µM
  target mRNA inhibition: 22%
0.313 µM
  target mRNA inhibition: 41%
1 µM
  target mRNA inhibition: 76%
1.25 µM
  target mRNA inhibition: 74%
5 µM
  target mRNA inhibition: 84%

## GCATACTTATTAAGTA (sugars k3 d10 k3, PS)
1 µM
  target mRNA inhibition: 32%

## GCATCAAGACATTCTA (sugars kkdddddddddkekek, PS)
1 µM
  target mRNA inhibition: 43%

## GCATUAATGCCACCCT (sugars k3 d1 m1 d8 k3, PS)
1 µM
  target mRNA inhibition: 32%

## GCCAAACTGCTACTGT (sugars k3 d10 k3, PS)
0.02 µM
  target mRNA inhibition: 1%
0.078 µM
  target mRNA inhibition: 13%
0.313 µM
  target mRNA inhibition: 41%
1 µM
  target mRNA inhibition: 73%
1.25 µM
  target mRNA inhibition: 63%
5 µM
  target mRNA inhibition: 76%

## GCCAAGCTTTGTGTCA (sugars k3 d10 k3, PS)
1 µM
  target mRNA inhibition: 64%

## GCCAATTCACATATGT (sugars k3 d10 k3, PS)
1 µM
  target mRNA inhibition: 34%

## GCCTAGTTTTCGGCAC (sugars k3 d10 k3, PS)
1 µM
  target mRNA inhibition: 12%

## GCCTTGAATAGCAAGC (sugars k3 d9 k3 e1, PS)
1 µM
  target mRNA inhibition: 38%

## GCCTTGAATAGCAAGC (sugars k3 d10 k3, PS)
1 µM
  target mRNA inhibition: 32%

## GCCTUGAATAGCAAGC (sugars k3 d1 m1 d8 k3, PS)
1 µM
  target mRNA inhibition: 12%

## GCGGCAAATTTGCTGG (sugars k3 d10 k3, PS)
1 µM
  target mRNA inhibition: 0%

## GCTACTTGAACAGTCT (sugars kkdddddddddkekek, PS)
1 µM
  target mRNA inhibition: 64%

## GCTAGACAATTGCAAA (sugars k3 d10 k3, PS)
1 µM
  target mRNA inhibition: 77%

## GCTAGTAATTGCATCT (sugars k3 d10 k3, PS)
1 µM
  target mRNA inhibition: 47%

## GCTAGTGCCAAACCAA (sugars k3 d9 k3 e1, PS)
1 µM
  target mRNA inhibition: 70%

## GCTATAACTGGAAGGA (sugars k3 d10 k3, PS)
1 µM
  target mRNA inhibition: 58%

## GCTCCATAATAATAGC (sugars k3 d1 m1 d8 k3, PS)
1 µM
  target mRNA inhibition: 16%

## GCTCTAATGTTTCTTG (sugars k3 d10 k3, PS)
1 µM
  target mRNA inhibition: 62%

## GCTCTATTGGGCCAGG (sugars k3 d10 k3, PS)
1 µM
  target mRNA inhibition: 47%

## GCTGAGTGGATTACAT (sugars k3 d10 k3, PS)
1 µM
  target mRNA inhibition: 44%

## GCTGCTAGTGCCAAAC (sugars k3 d9 k3 e1, PS)
1 µM
  target mRNA inhibition: 62%

## GCTGGAACAATATGGG (sugars k3 d10 k3, PS)
1 µM
  target mRNA inhibition: 36%

## GCTGTAAGAGTCAGTA (sugars k3 d9 k3 e1, PS)
1 µM
  target mRNA inhibition: 52%

## GCTGTAAGAGTCAGTA (sugars kkdddddddddkekek, PS)
1 µM
  target mRNA inhibition: 42%

## GCTTAGTTCTTAATTA (sugars k3 d10 k3, PS)
1 µM
  target mRNA inhibition: 28%

## GCTTTGAAGACAATAC (sugars k3 d10 k3, PS)
1 µM
  target mRNA inhibition: 42%

## GCTTUTGTCCACCTTT (sugars k3 d1 m1 d8 k3, PS)
0.02 µM
  target mRNA inhibition: 0%
0.078 µM
  target mRNA inhibition: 0%
0.313 µM
  target mRNA inhibition: 13%
1 µM
  target mRNA inhibition: 75%
1.25 µM
  target mRNA inhibition: 70%
5 µM
  target mRNA inhibition: 89%

## GGAAAGGATATTTGGC (sugars k3 d10 k3, PS)
1 µM
  target mRNA inhibition: 58%

## GGAAATTCACAATCTA (sugars k3 d10 k3, PS)
1 µM
  target mRNA inhibition: 22%

## GGAATGCTACTTGAAC (sugars kkdddddddddkekek, PS)
1 µM
  target mRNA inhibition: 49%

## GGACCAATATAATCCA (sugars k3 d10 k3, PS)
1 µM
  target mRNA inhibition: 20%

## GGACCAGGGAATTTAT (sugars k3 d10 k3, PS)
1 µM
  target mRNA inhibition: 55%

## GGACTTCAGAGTTATA (sugars k3 d10 k3, PS)
1 µM
  target mRNA inhibition: 36%

## GGAGCTAGATACTCAA (sugars k3 d10 k3, PS)
1 µM
  target mRNA inhibition: 42%

## GGAGGAGGTACTGTCT (sugars k3 d10 k3, PS)
1 µM
  target mRNA inhibition: 44%

## GGAGTACTTCACAATT (sugars k3 d10 k3, PS)
0.02 µM
  target mRNA inhibition: 20%
0.078 µM
  target mRNA inhibition: 25%
0.313 µM
  target mRNA inhibition: 42%
1 µM
  target mRNA inhibition: 79%
1.25 µM
  target mRNA inhibition: 75%
5 µM
  target mRNA inhibition: 87%

## GGAGTAGATGATGGTG (sugars k3 d10 k3, PS)
1 µM
  target mRNA inhibition: 31%

## GGAGTCGGATTATTTT (sugars k3 d10 k3, PS)
1 µM
  target mRNA inhibition: 41%

## GGATATGTCATCTAAA (sugars k3 d10 k3, PS)
1 µM
  target mRNA inhibition: 68%

## GGATGTTAGGACCCAG (sugars k3 d10 k3, PS)
0.02 µM
  target mRNA inhibition: 4%
0.078 µM
  target mRNA inhibition: 18%
0.313 µM
  target mRNA inhibition: 69%
1 µM
  target mRNA inhibition: 81%
1.25 µM
  target mRNA inhibition: 89%
5 µM
  target mRNA inhibition: 93%

## GGATTTCTAGGATGAT (sugars k3 d10 k3, PS)
1 µM
  target mRNA inhibition: 58%

## GGCCGCACACTGAAGC (sugars k3 d10 k3, PS)
1 µM
  target mRNA inhibition: 9%

## GGCCTGAAGTTCTGAT (sugars k3 d10 k3, PS)
1 µM
  target mRNA inhibition: 0%

## GGCTACAGATTGGAAT (sugars kkdddddddddkekek, PS)
0.02 µM
  target mRNA inhibition: 16%
0.078 µM
  target mRNA inhibition: 0%
0.313 µM
  target mRNA inhibition: 27%
1 µM
  target mRNA inhibition: 73%
1.25 µM
  target mRNA inhibition: 62%
5 µM
  target mRNA inhibition: 83%

## GGCTAGGATTAATCAT (sugars k3 d10 k3, PS)
1 µM
  target mRNA inhibition: 44%

## GGCTATAGTAATTGCT (sugars k3 d10 k3, PS)
1 µM
  target mRNA inhibition: 13%

## GGCTGTAAGAGTCAGT (sugars k3 d10 k3, PS)
0.02 µM
  target mRNA inhibition: 0%
0.078 µM
  target mRNA inhibition: 0%
0.313 µM
  target mRNA inhibition: 0%
1 µM
  target mRNA inhibition: 88%
1.25 µM
  target mRNA inhibition: 51%
5 µM
  target mRNA inhibition: 42%

## GGCTTTATCATTCTAA (sugars k3 d10 k3, PS)
1 µM
  target mRNA inhibition: 20%

## GGGAAATTGTTGCTGT (sugars k3 d10 k3, PS)
1 µM
  target mRNA inhibition: 42%

## GGGAATGCTCATATTA (sugars k3 d10 k3, PS)
1 µM
  target mRNA inhibition: 18%

## GGGACCAATATAATCC (sugars k3 d10 k3, PS)
1 µM
  target mRNA inhibition: 31%

## GGGAGGTAGCTTTTGT (sugars k3 d10 k3, PS)
1 µM
  target mRNA inhibition: 10%

## GGGATAAACTGTTCTT (sugars k3 d10 k3, PS)
1 µM
  target mRNA inhibition: 47%

## GGGCTAGAACTTAAAA (sugars k3 d10 k3, PS)
1 µM
  target mRNA inhibition: 35%

## GGGTGGTAACGGTGAT (sugars k3 d10 k3, PS)
1 µM
  target mRNA inhibition: 46%

## GGTCACCTTTCATAAT (sugars k3 d10 k3, PS)
1 µM
  target mRNA inhibition: 57%

## GGTCACCTTTCATAAT (sugars kkdddddddddkekek, PS)
1 µM
  target mRNA inhibition: 52%

## GGTGAACCCAGTATTC (sugars k3 d10 k3, PS)
1 µM
  target mRNA inhibition: 7%
